Reference: the supplement of paper PMC7017272
± gives the standard deviation of the averaged measurements.

Experiments:
Test in all cases: maximal % inhibition of viability relative to DMSO; higher = stronger effect
UT-SCC-28 = conditions: culture condition: plastic 2D (no matrix); treatment time: 3 days
Experimental: (§1)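 HNSCC cell lines (500 cells/well, 384-well) were cultured on plastic, on top of (2D) or embedded (3D) in Matrigel or human leiomyoma matrix Myogel (500 ug/mL; Myogel 3D mixed with rat collagen I). Cells were treated for 3 days with 5 ten-fold concentrations of each drug, and viability was read by CellTiter-Glo. Viability was normalised to DMSO and benzethonium chloride controls and fitted with the FIMM DSRT pipeline to give IC50 (nM), maximal % inhibition and DSS. Suffixes _1/_2/_3 are replicates. Only inhibition-mode (IC50) fits are kept.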

UT-SCC-8 = conditions: treatment time: 3 days
Experimental: as §1

UT-SCC-42A = conditions: treatment time: 3 days
Experimental: as §1

UT-SCC-14 = conditions: treatment time: 3 days
Experimental: as §1

UT-SCC-44 = conditions: treatment time: 3 days
Experimental: as §1

UT-SCC-106A = conditions: treatment time: 3 days
Experimental: as §1

UT-SCC-42B = conditions: treatment time: 3 days
Experimental: as §1

UT-SCC-73 = conditions: treatment time: 3 days
Experimental: as §1

UT-SCC-40 = conditions: treatment time: 3 days
Experimental: as §1

[1] = culture condition: embedded in Matrigel
[2] = culture condition: embedded in Myogel + collagen I
[3] = culture condition: on top of Matrigel
[4] = culture condition: on top of Myogel
[5] = culture condition: plastic 2D (no matrix)

CC(=O)Nc1cccc(-n2c(=O)n(C3CC3)c(=O)c3c(Nc4ccc(I)cc4F)n(C)c(=O)c(C)c32)c1 [Trametinib]
maximal % inhibition of viability (UT-SCC-28): 21.1 ± 4.4%
maximal % inhibition of viability (UT-SCC-8; [1]): 61.3 ± 18%
maximal % inhibition of viability (UT-SCC-8; [2]): 24.5 ± 29%
maximal % inhibition of viability (UT-SCC-8; [3]): 47.3 ± 24%
maximal % inhibition of viability (UT-SCC-8; [4]): 41.1 ± 19%
maximal % inhibition of viability (UT-SCC-8; [5]): 43 ± 23%
maximal % inhibition of viability (UT-SCC-42A; [1]): 45.4 ± 0.67%
maximal % inhibition of viability (UT-SCC-42A; [2]): 22.1 ± 5.4%
maximal % inhibition of viability (UT-SCC-42A; [3]): 50.3 ± 4.1%
maximal % inhibition of viability (UT-SCC-42A; [4]): 29.4 ± 6.9%
maximal % inhibition of viability (UT-SCC-42A; [5]): 34.7 ± 3.8%
maximal % inhibition of viability (UT-SCC-14; [1]): 43.2 ± 5.3%
maximal % inhibition of viability (UT-SCC-14; [2]): 31 ± 10%
maximal % inhibition of viability (UT-SCC-14; [3]): 37.1 ± 8.6%
maximal % inhibition of viability (UT-SCC-14; [4]): 22.9 ± 3%
maximal % inhibition of viability (UT-SCC-14; [5]): 24 ± 8.8%
maximal % inhibition of viability (UT-SCC-44; [1]): 66.8 ± 1.4%
maximal % inhibition of viability (UT-SCC-44; [2]): 23 ± 2.4%
maximal % inhibition of viability (UT-SCC-44; [3]): 46.1 ± 8.3%
maximal % inhibition of viability (UT-SCC-44; [4]): 28.4 ± 11%
maximal % inhibition of viability (UT-SCC-44; [5]): 41.1 ± 9%
maximal % inhibition of viability (UT-SCC-106A; [1]): 51.5 ± 3.2%
maximal % inhibition of viability (UT-SCC-106A; [2]): 15.1 ± 2.8%
maximal % inhibition of viability (UT-SCC-106A; [3]): 61.8 ± 3.4%
maximal % inhibition of viability (UT-SCC-106A; [4]): 23.2 ± 8.1%
maximal % inhibition of viability (UT-SCC-106A; [5]): 63.5 ± 1.5%
maximal % inhibition of viability (UT-SCC-42B; [1]): 67.8 ± 4.4%
maximal % inhibition of viability (UT-SCC-42B; [3]): 52.2 ± 7.1%
maximal % inhibition of viability (UT-SCC-42B; [4]): 20.8 ± 7.8%
maximal % inhibition of viability (UT-SCC-42B; [5]): 28.8 ± 8%
maximal % inhibition of viability (UT-SCC-73; [1]): 81.2 ± 1.7%
maximal % inhibition of viability (UT-SCC-73; [2]): 62.8 ± 12%
maximal % inhibition of viability (UT-SCC-73; [3]): 76.9 ± 0.9%
maximal % inhibition of viability (UT-SCC-73; [4]): 63.3 ± 3.6%
maximal % inhibition of viability (UT-SCC-73; [5]): 70.53 ± 0.25%
maximal % inhibition of viability (UT-SCC-40; [1]): 78.07 ± 0.4%
maximal % inhibition of viability (UT-SCC-40; [2]): 61.7 ± 4.8%
maximal % inhibition of viability (UT-SCC-40; [3]): 71.7 ± 2.8%
maximal % inhibition of viability (UT-SCC-40; [4]): 51.9 ± 1.5%
maximal % inhibition of viability (UT-SCC-40; [5]): 52.2 ± 7.5%
